According to patent publication US11779592B2, “Inhibition of NGLY1 for the treatment of cancer” (University of North Texas Health Science Center, priority 2017, dated 2023):
Residues, ends and D or L forms follow the SMILES beside them. *: point of attachment. Cbz = O=C(OCc1ccccc1)*; CH2F = FC*

Assays:
[1] = molecular target: T1, human NGLY1 (Homo sapiens, UniProt Q96IV0); experiment: RNase B deglycosylation assay with recombinant human NGLY1; format: biochemical
T1 construct: host or cells: HEK293T
T1 sequence (Q96IV0 1-654): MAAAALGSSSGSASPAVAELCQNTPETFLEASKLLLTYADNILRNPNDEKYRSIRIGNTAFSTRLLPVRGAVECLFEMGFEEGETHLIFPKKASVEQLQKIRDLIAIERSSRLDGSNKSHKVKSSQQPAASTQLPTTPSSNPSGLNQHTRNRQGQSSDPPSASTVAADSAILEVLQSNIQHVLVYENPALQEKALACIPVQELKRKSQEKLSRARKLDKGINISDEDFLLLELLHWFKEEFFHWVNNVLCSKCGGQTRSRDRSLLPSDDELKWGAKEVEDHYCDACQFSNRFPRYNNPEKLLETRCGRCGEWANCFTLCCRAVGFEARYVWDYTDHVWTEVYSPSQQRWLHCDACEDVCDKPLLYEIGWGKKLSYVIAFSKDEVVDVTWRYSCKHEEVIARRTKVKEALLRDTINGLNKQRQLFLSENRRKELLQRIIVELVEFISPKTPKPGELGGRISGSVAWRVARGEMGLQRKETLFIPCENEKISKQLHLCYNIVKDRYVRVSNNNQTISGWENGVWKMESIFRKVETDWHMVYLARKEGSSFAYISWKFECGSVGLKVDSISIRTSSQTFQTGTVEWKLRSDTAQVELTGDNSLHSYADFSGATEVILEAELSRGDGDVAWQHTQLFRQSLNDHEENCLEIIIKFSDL
Text: The computational homology model of human NGLY1 core domain was generated and used for studying interactions between NGLY1 and novel small molecules that are designed to covalently modified and inactivate the catalytic site of NGLY1. (FIG. 15A) The most favorable binding pose of Z-VAD-fmk, a short peptide with NGLY1 and caspase inhibitory activity, in the human NGLY1 homology model superimposed to the conformation of Z-VAD-fmk bound to mouse NGLY1 in a co-crystalized structure. […] RNase B (g): glycosylated RNase B. RNase B (dg): deglycosylated RNase B. Veh: vehicle (DMSO) treatment. M: molecular weight marker. Lower panel: the deglycosylation of NFE2L1 altered by the treatment of 20 μM Z-VAD-fmk and 200 μM NM-350 in bortezomib-treated HEK293T cells. The cells were pretreated with vehicle (DMSO), Z-VAD-fmk and NM-350 for 24 hours and subsequently subjected to concomitant treatment with 10 μM bortezomib for an additional 16 hours. Cell lysates reacted with and without 500 units of PNGase F for 2 hours were analyzed using Western blotting. Top arrowhead in lanes 2 and 3: fully glycosylated NFE2L1. Top arrowhead in lane 1: partially glycosylated NFE2L1. Bottom arrowhead: deglycosylated and truncated NFE2L1. […] The cell viability curve of combinatorial treatment was plotted according to the doses of dacarbazine used in the treatment. […] The cell viability curve of combinatorial treatment was plotted according to the doses of bortezomib used in the treatment. All the data of cell viability tests were presented as mean±standard deviation (n=3).
FLAG-tagged human NGLY1 was overexpressed by the transduction of the pLenti expression vector that carries a Myc-DDK-tagged-human NGLY1 open reading frame in HEK293T cells. Anti-FLAG magnetic beads (OriGene Technologies, Rockville, MD) were used to react with the lysate of HEK293T cells overnight at 4° C. in the presence of pan-protease inhibitors to purify the FLAG-tagged NGLY1. The magnetic beads were thoroughly washed using 0.5% Tween 20 in PBS for three times to minimize non-specific binding. The enrichment of recombinant human NGLY1 was checked by Western blotting of NGLY1 in the pull-down fraction. To perform RNase B deglycosylation assays, purified human NGLY1 on an equal volume of magnetic beads was incubated with PBS containing each of the indicated small molecules and control vehicle (DMSO) at 37° C. for 2 hours. The magnetic beads were then collected and resuspended in PBS containing 0.05% NP-40. Each magnetic bead suspension was mixed with 1 ug RNase B (Millipore Sigma, St. Louis, MO) that was pre-denatured using 5 mM DTT in the presence of 8M urea at 42° C. for 1 hour followed by the treatment of 25 mM iodoacetamide at room temperature for 1 hour and buffer exchange into PBS using Zeba 7K MWCO spin columns (Thermo Fisher Scientific, Carlsbad, CA). The mixtures of magnetic bead suspension and denatured RNase B were left at 37° C. for 16 hours. The proteins in each mixture were resolved by SDS-PAGE and visualized using SYPRO Ruby gel stain (Thermo Fisher Scientific, Carlsbad, CA).

[2] = tested on: SK-MEL-2 cells; experiment: Cell viability test (MTT) in SK-MEL-2 cells; format: cell-based, human
Method: (§1) Despite the frequent failure of chemotherapy in patients with melanoma, chemotherapy remains a frontline approach for treatment, especially in many patients who cannot afford immunotherapy or targeted therapy. […] Identifying novel approaches to enhance the efficacy of chemotherapy and targeted therapy agents in melanoma will greatly benefit many cancer patients. […] The IC50 of each drug treatment in each cell clone was calculated using CalcuSyn 2.0.
(§2) The dose effect of dox-induced expression of NGLY1 shRNA in each cell clone was also determined. The IC50 of each drug treatment in each cell clone was calculated using CalcuSyn 2.0. To determine the interaction between NGLY1 knockdown and each anticancer agent, cells were exposed to four-dose combinations of dox and an anticancer agent at a fixed dose ratio. The combination index (CI) value was calculated using CalcuSyn 2.0. CI values of less than 1 are considered a synergistic interaction. […]
(§3) Cells were seeded into 96-well plates (2,500-5,000 cells/well, depending on cell types), incubated overnight, and treated as indicated. […] Reduced MTT was solubilized in DMSO for determination of absorbance at 570 nm. Absorbance of reduced MTS was directly measured in the reaction medium at 490 nm. The relative cell viability in each treatment condition was calculated based on absorbance values.

[3] = tested on: NFE2L1; experiment: Deglycosylation of NFE2L1 in bortezomib-treated HEK293T cells (Western blotting); format: cell-based; details: 24 hours pretreatment then 10 μM bortezomib 16 hours
Text: The computational homology model of human NGLY1 core domain was generated and used for studying interactions between NGLY1 and novel small molecules that are designed to covalently modified and inactivate the catalytic site of NGLY1. (FIG. 15A) The most favorable binding pose of Z-VAD-fmk, a short peptide with NGLY1 and caspase inhibitory activity, in the human NGLY1 homology model superimposed to the conformation of Z-VAD-fmk bound to mouse NGLY1 in a co-crystalized structure. […] RNase B (g): glycosylated RNase B. RNase B (dg): deglycosylated RNase B. Veh: vehicle (DMSO) treatment. M: molecular weight marker. Lower panel: the deglycosylation of NFE2L1 altered by the treatment of 20 μM Z-VAD-fmk and 200 μM NM-350 in bortezomib-treated HEK293T cells. The cells were pretreated with vehicle (DMSO), Z-VAD-fmk and NM-350 for 24 hours and subsequently subjected to concomitant treatment with 10 μM bortezomib for an additional 16 hours. Cell lysates reacted with and without 500 units of PNGase F for 2 hours were analyzed using Western blotting. Top arrowhead in lanes 2 and 3: fully glycosylated NFE2L1. Top arrowhead in lane 1: partially glycosylated NFE2L1. Bottom arrowhead: deglycosylated and truncated NFE2L1. […] The cell viability curve of combinatorial treatment was plotted according to the doses of dacarbazine used in the treatment. […]

[4] = tested on: UACC257 cells; experiment: Cell viability test (MTT) in UACC257 cells; format: cell-based, human; details: 20 μM, 72-hour treatment
Method: as §1, §2, §3

[5] = tested on: MALME3M cells; format: cell-based; details: 20 μM, 72-hour treatment
Method: as §1, §2, §3

[6] = tested on: U-251MG glioblastoma cells; experiment: Cell morphology of U-251MG cells with NGLY1 knockdown; format: cell-based
[7] = tested on: NGLY1; experiment: NGLY1 expression in stable clones of melanoma cells (immunoblotting); format: cell-based, human; details: stable clones of MALME3M, UACC257 and SK-MEL-2 cells, 48-hour treatment of dox
Text: These NGLY1-targeting shRNA sequences and a scrambled (non-targeting) shRNA sequence were cloned into doxycycline (dox)-inducible, polycistronic green fluorescence protein (GFP)-shRNA expression constructs (a pZIP inducible lentiviral vector, TransOMIC). Stable clones have been generated with the shRNA expression constructs in multiple human melanoma cell lines, including MALME3M, UACC257, SK-MEL-2, and COLO829 melanoma cells. […] Similar knockdown effects were found in the stable clones of other melanoma cells with this particular NGLY1 shRNA sequence. […] Similar to human normal fibroblasts, normal melanocytes (FIG. 5D) and keratinocytes appeared to well tolerate NGLY1 knockdown and show no sign of increased cell death. In addition, SK-MEL-2, MALME3M cells that express inducible NGLY1 shRNA presented significant apoptosis, compared to their scrambled RNA-expressing counterparts. The expression of exogenous human NGLY1 in melanoma cells attenuated NGLY1-targeting shRNA-induced apoptosis (FIG. 5E).
The knockdown of NGLY1 expression in melanoma cells was achieved by the transduction of pZIP-TRE3GS lentiviral expression vectors that carry two independent shRNA sequences (Below; TransOMIC Technologies, Huntsville, AL). […] The expression of the shRNA sequences and an open reading frame of the ZsGreen reporter is driven by the TRE3GS doxycycline-inducible promoter. […]

[8] = tested on: HepG2 liver cancer cells; experiment: Cell morphology of HepG2 cells with NGLY1 knockdown; format: cell-based
[9] = 2-hour reaction with human NGLY1

Molecule: C=CC(=O)N[C@@H](CC(=O)N[C@@H]1O[C@H](COC(C)=O)[C@@H](OC(C)=O)[C@H](OC(C)=O)[C@H]1NC(C)=O)C(=O)NCCC [NM-322, (2R,3S,4R,5R,6R)-5-acetamido-2-(acetoxymethyl)-6-((S)-3-acrylamido-4-oxo-4-(propylamino)butanamido)tetrahydro-2H-pyran-3,4-diyl diacetate]
- NGLY1 activity in the deglycosylation of denatured RNase B [1, 9]: suppressed its activity
- suppression of cell viability in combination ([2]; in combination with dacarbazine): synergistic effect

Molecule: C=CS(=O)(=O)N[C@@H](CC(=O)N[C@@H]1O[C@H](COC(C)=O)[C@@H](OC(C)=O)[C@H](OC(C)=O)[C@H]1NC(C)=O)C(=O)NCCC [NM-348, (2R,3S,4R,5R,6R)-5-Acetamido-2-(acetoxymethyl)-6-((S)-4-oxo-4-(propylamino)-3-(vinylsulfonamido)butanamido)tetrahydro-2H-pyran-3,4-diyl diacetate]
- NGLY1 activity in the deglycosylation of denatured RNase B [1, 9]: suppressed its activity

Molecule: CCCNC(=O)[C@H](CC(=O)N[C@@H]1O[C@H](COC(C)=O)[C@@H](OC(C)=O)[C@H](OC(C)=O)[C@H]1NC(C)=O)NC(=O)CCl [NM-350, (2R,3S,4R,5R,6R)-5-Acetamido-2-(acetoxymethyl)-6-((S)-3-(2-chloroacetamido)-4-oxo-4-(propylamino)butanamido)tetrahydro-2H-pyran-3,4-diyl diacetate]
- deglycosylation of NFE2L1 ([3]; 200 μM): clear retention of N-glycans on NFE2L1
- NGLY1 activity in the deglycosylation of denatured RNase B [1, 9]: suppressed its activity
- suppression of cell viability in combination ([2]; in combination with bortezomib): synergistically suppressed the viability

Molecule: CCCNC(=O)[C@H](CC(=O)N[C@@H]1O[C@H](COC(C)=O)[C@@H](OC(C)=O)[C@H](OC(C)=O)[C@H]1NC(C)=O)NC(=O)/C=C/CN(C)C [NM-354, (2R,3S,4R,5R,6R)-5-Acetamido-2-(acetoxymethyl)-6-((S)-3-((E)-4-(dimethylamino)but-2-enamido)-4-oxo-4-(propylamino)butanamido)tetrahydro-2H-pyran-3,4-diyl diacetate]
- NGLY1 activity in the deglycosylation of denatured RNase B [1, 9]: suppressed its activity

Molecule: Cc1ccc(S(=O)(=O)/C=C/C(=O)N[C@@H](CCc2ccccc2)C(=O)NCCC(C)C)cc1 [WRR139, reference compound]
- NGLY1 activity in the deglycosylation of denatured RNase B ([1]; 2-hour reaction, 5 μM): suppressed its activity

Molecule: COC(=O)C[C@H](NC(=O)[C@H](C)NC(=O)[C@@H](NC(=O)OCc1ccccc1)C(C)C)C(=O)CF [Z-VAD-fmk, reference compound] (Cbz-Val-Ala-Asp(OMe)-CH2F)
- deglycosylation of NFE2L1 ([3]; 20 μM): altered
- NGLY1 activity in the deglycosylation of denatured RNase B ([1]; 2-hour reaction, 20 μM): suppressed its activity

Molecule: N.N.[Cl][Pt][Cl] [cisplatin]
- growth and cell death [4]: moderate growth inhibition without increase of cell death
- growth and cell death [5]: moderate growth inhibition without increase of cell death

B1: NGLY1-shRNA647: NGLY1-targeting shRNA sequence (SEQ ID NO: 6), dox-inducible lentiviral vector (nucleic acid)
DNA: AAAGCAUUACUUCGAGACACUAUAGUGAAGCCACAGAUGUAUAGUGUCUCGAAGUAAUGCUUCU
- cell morphology [6]: morphology of apoptosis
- expression of NGLY1 [7]: largely suppressed
- cell morphology [8]: morphology of apoptosis
